Measured values as given in PMC8589421, “Impact of Type II LRRK2 inhibitors on signaling and mitophagy” (Biochemical Journal, 2021).
Entries after “also recorded” stand apart in the source; their conditions may differ. Read-outs that look alike come from different tables or passages of the source.

Key:
[1] = tested on: LRRK2 mediated phosphorylation of Rab10 at Thr73; assay: Rab10 Thr73 phospho-immunoblot in wild-type MEFs; assay type: cell-based, mouse; conditions: for IC50: Mus musculus
Method: Wild-type and homozygous LRRK2 [R1441C] […] All cells were grown at 37°C, 5% (by vol) CO2 in a humidified atmosphere and regularly tested for mycoplasma contamination.
Inhibitors were dissolved in dimethyl sulfoxide (DMSO) (Sigma, #D2650). The inhibitors were diluted 1000× into cell medium. The equivalent volume of DMSO was added to the minus inhibitor controls. Experiments were performed in six-well plates, 10 cm dishes or 15 cm dishes depending on the amount of cell extract required.
Lysates were incubated on ice for 30 min and clarified by centrifugation at 20 800×g at 4°C for 20 min. Supernatants were quantified by Bradford assay (Bio-Rad Protein Assay Dye Reagent Concentrate #5000006) and samples prepared in 1× lithium dodecyl sulfate sample buffer final concentration (NuPage LDS Sample buffer 4× Invitrogen, #NP0008). When not deployed immediately, lysates were snap-frozen in liquid nitrogen and stored at −80°C until use.
Cell extracts were mixed with a quarter of a volume of NuPage LDS Sample buffer 4× Invitrogen and heated at 95°C for 5 min. […] At the end of electrophoresis, proteins were electrophoretically transferred onto the nitrocellulose membrane (GE Healthcare, Amersham Protran Supported 0.45 µm NC) at 100 V for 90 min on ice in the transfer buffer (48 mM Tris–HCl and 39 mM glycine supplemented with 20% methanol). Transferred membrane was blocked with 5% (w/v) skim milk powder dissolved in TBS-T [20 mM Tris–HCl, pH 7.5, 150 mM NaCl and 0.1% (v/v) Tween 20] at room temperature for 1 h. The membrane was typically cropped into three pieces, namely the ‘top piece’ (from the top of the membrane to 75 kDa), the ‘middle piece’ (between 75 and 30 kDa) and the ‘bottom piece’ (from 30 kDa to the bottom of the membrane). All primary antibodies were used at 1 μg/ml final concentration and incubated in TBS-T containing 5% (by mass) bovine serum albumin with exception of α-tubulin and GAPDH antibodies that were diluted 1 : 5000 and 1 : 2000, respectively. The top piece was incubated with the indicated rabbit anti-LRRK2 phosphorylation site antibody multiplexed with mouse anti-LRRK2 C-terminus total antibody. The middle piece was incubated with mouse anti-GAPDH or anti-α-tubulin antibody. The bottom pieces were incubated with indicated total and phospho-Rab antibodies. Membranes were incubated in primary antibody overnight at 4°C. Prior to secondary antibody incubation, membranes were washed three times with TBS-T for 10 min each. […] Membranes were washed with TBS-T for three times with a 10 min incubation for each wash. Protein bands were acquired via near infrared fluorescent detection using the Odyssey CLx imaging system and quantified using the Image Studio software.

[2] = tested on: Rab29 mediated relocalization of LRRK2 to the Golgi apparatus; assay: Rab29 mediated recruitment of LRRK2 to the Golgi, immunofluorescence in HeLa cells; assay type: cell-based, human; conditions: 5 μM GZD-824 or 1 μM GSK3357679A for 4 h
Method: HeLa cells were seeded on coverslips and transfected with the plasmid reported in each image 24 h before fixation. Following the treatments with the inhibitors described in figure legends, cells were washed twice in DPBS and fixed with 3.7% Paraformaldehyde pH 7.3 (Agar scientific, #R1026), 200 mM HEPES, for 20 min. Cells were then washed twice with DMEM, 20 mM HEPES, and then incubated for 10 min with DMEM, 10 mM HEPES. After two washes in DPBS, fixed cells were permeabilized with 0.2% (by vol) NP-40 in DPBS for 10 min. Cells were blocked using 1% (by mass) BSA in DPBS, then incubated for 1 h with primary antibodies diluted in 1% (by mass) BSA in DPBS, washed three times in 0.2% (by mass) BSA in DPBS, and incubated for 1 h with secondary antibodies. The coverslips were washed three times with 0.2% (by mass) BSA in PBS. Coverslips were washed once more in double distilled water and mounted on slides (VWR, #631-0909) using ProLong™ Diamond Antifade Mountant (ThermoFisher, #P36961). For localization of the Golgi compartment, Golgin-97 was stained with rabbit anti-GM97 (CST, #D8P2K) and visualized with goat anti-rabbit conjugated to Alexa Fluor 405 (Life Technologies, #P10994). HA-Rab29 was stained with mouse anti-HA (Abcam, clone HA.C5 #ab18181) and visualized with goat anti-mouse conjugated to Alexa Fluor 594 (Life Technologies, #A-11032). […]

LRRK2 14-3-3 binding = tested on: T1, LRRK2 14-3-3 binding; assay: Analysis of 14-3-3 binding in HEK293 cells overexpressing wild-type LRRK2; assay type: cell-based, human; conditions: 5 μM GZD-824 for 4 h, 1 μM GSK3357679A
T1 construct: host or cells: HEK293
Method: This was undertaken as described previously. Briefly, wild-type FLAG-LRRK2 was transiently expressed in HEK293 cells with HA-Rab29. Twenty-four hours post-transfection cells were lysed with lysis buffer and snap frozen. LRRK2 was immunoprecipitated from 4 mg of lysate using 20 μl anti-FLAG-M2 agarose beads (Sigma, #A2220) for 2 h in rotation at +4°C. Immunoprecipitates were washed once with lysis buffer supplemented with 0.5% (by vol) Nonidet P-40 (instead of Triton X-100) and 0.5 M NaCl followed by two washes. Samples were eluted in 2× LDS sample buffer (20 µl per 10 µl of resin) and heated at 70°C for 10 min. After centrifugation through 0.22 µm Spin X filter, the eluted protein was subjected to immunoblotting with the indicated antibodies. An amount of 10 μl of the final reaction mixture was needed for the detection of binding of endogenous 14-3-3 and 1 µl for detection of LRRK2.

Cc1ccc(C(=O)Nc2ccc(CN3CCN(C)CC3)c(C(F)(F)F)c2)cc1C#Cc1cnc2[nH]ncc2c1 [GZD-824]
IC50 ([1]; 2 h, Figure 4, read-out: IC50 for dephosphorylation of Rab10, wild type MEFs (estimate in text)): 70 nM | IC50 ([1]; 2 h, wild type MEFs littermate matched to LRRK2[G2019S], 2 h, panel (B), read-out: LRRK2 WT Rab10 pThr73 IC50): 65.9 nM | IC50 ([1]; 2 h, wild type MEFs littermate matched to LRRK2[R1441C], 2 h, panel (A), read-out: LRRK2 WT Rab10 pThr73 IC50): 86.5 nM | IC50 ([1]; 2 h, wild-type MEFs, 2 h, Figure 2A, read-out: IC50 inhibition of Rab10 phosphorylation): ~300 nM | Rab10 phosphorylation level after treatment ([1]; wild-type MEFs, 1 μM, 2 h): almost background levels; also recorded: almost basal levels | Rab10 phosphorylation over 24 h time course ([1]; wild-type MEFs, 1 μM, 24 h): remained suppressed | time to 50% reduction of Rab10 phosphorylation ([1]; wild-type MEFs, 1 μM, Figure 2C): ~10 min | impact on Rab29 mediated recruitment of LRRK2 to the Golgi [2]: did not significantly impact | impact on 14-3-3 binding to LRRK2 (LRRK2 14-3-3 binding): no significant impact
